Test results: ChEMBL document CHEMBL6153138, “Discovery of Novel Aromatic Urea-Imidazole Salt Derivatives for Cancer Therapy via Targeting ERK1/2” (J Med Chem, 2025)
pIC50, pKd: −log10 of the molar value. Active and inactive are the calls of the source. No cut-off for these calls is given here.

Key:
MCF7 [1] = experiment: Inhibition of cell migration in human MCF7 cells at 0.5 to 2 uM incubated for 48 hrs by wound healing assay; type: functional, cell-based; conditions: dose 0.5-2 µM
[2] = Toxicity in female BALB/c mouse assessed as effect on kidney at 25 to 50 mg/kg, po qd measured after 18 days by H and E staining based analysis; type: organism-based; conditions: in vivo, 432 h, dose 25-50 mg/kg, time 18 day
[3] = Cmax in Sprague-Dawley rat at 10 mg/kg, po by LC-MS/MS analysis; type: ADME, organism-based; conditions: in vivo
MCF7 [4] = experiment: Downregulation of p90RSK phosphorylation expression in human MCF7 cells at 0.5 to 2 uM measured after 30 mins to 4 hrs by Western blot analysis; type: functional, cell-based; conditions: dose 0.5-2 µM, time 30-240 min
4T1 [5] = experiment: Antitumor activity against mouse 4T1 cells implanted in female BALB/c mouse model assessed as reduction in c-Myc phosphorylation level at 50 mg/kg, po qd by immunohistochemical analysis; type: functional, organism-based
MCF7 [6] = experiment: Antiproliferative activity against human MCF7 cells harbouring ERK2 knockout incubated for 48 hrs by CCK-8 method; type: functional, cell-based
[7] = molecular target: Serine/threonine-protein kinase TAO2 (Homo sapiens) (UniProt Q9UL54); experiment: Inhibition of human TAO2 at 10000 nM by DiscoverX KINOMEscan assay relative to control
Mitochondrial membrane [8] = experiment: Induction of mitochondrial membrane potential loss in human MCF7 cells assessed as reduction in JC-1 aggregates by measuring decrease in red fluorescence at 1 uM by flow cytometry analysis (reference value: 24.7%); type: cell membranes; parameters: scale not given: the % may be the effect or the level left
MCF7 [9] = experiment: Upregulation of ERK1/2 phosphorylation expression in human MCF7 cells at 2 uM measured after 12 to 24 hrs by Western blot analysis; type: functional, cell-based; conditions: time 12-24 hrs
A-375 = experiment: Antiproliferative activity against human A-375 cells expressing B-Raf V600E mutant; type: functional, cell-based
MCF7 [10] = experiment: Upregulation of caspase3 protein expression in human MCF-7 cells at 1 uM incubated for 6 hrs in presence of chloroquine by Western blot analysis; type: functional, cell-based
4T1 [11] = experiment: Antitumor activity against mouse 4T1 cells implanted in female BALB/c mouse model assessed as increase in LC3B expression at 50 mg/kg, po in presence of chloroquine by immunohistochemical analysis; type: functional, organism-based
4T1-Luc = experiment: Anti-metastatic activity in mouse 4T1-Luc cells assessed as reduction in number of tumor metastatic nodules at 25 to 50 mg/kg, po measured after 20 days; type: functional, organism-based; conditions: dose 25-50 mg/kg, time 20.0 day
[12] = molecular target: Mitogen-activated protein kinase 1 (Homo sapiens, UniProt P28482); experiment: Binding affinity to ERK2 (unknown origin) assessed as dissociation constant by MST analysis
4T1 [13] = experiment: Antitumor activity against mouse 4T1 cells implanted in female BALB/c mouse model assessed as reduction in tumor weight at 50 mg/kg, po qd measured for 18 days in presence of chloroquine; type: functional, organism-based; conditions: time 18.0 day
4T1 [14] = experiment: Antitumor activity against mouse 4T1 cells implanted in female BALB/c mouse model assessed as reduction in tumor volume at 50 mg/kg, po qd measured for 18 days in presence of chloroquine; type: functional, organism-based; conditions: time 18.0 day
4T1 [15] = experiment: Antitumor activity against mouse 4T1 cells implanted in female BALB/c mouse model assessed as reduction in PCNA expression at 50 mg/kg, po in presence of chloroquine by immunohistochemical analysis; type: functional, organism-based
[16] = molecular target: Vascular endothelial growth factor receptor 1 (Homo sapiens) (UniProt P17948); experiment: Inhibition of human FLT1 at 10000 nM by DiscoverX KINOMEscan assay relative to control
MCF7 [17] = experiment: Induction of apoptosis in human MCF7 cells assessed as early apoptotic cells at 1 uM incubated for 48 hrs in presence of chloroquine by Annexin V/FITC and PI staining based flow cytometry analysis (reference value: 8.72%); type: functional
[18] = molecular target: Mitogen-activated protein kinase 3 (Homo sapiens, UniProt P27361); experiment: Binding affinity to ERK1 (unknown origin) assessed as dissociation constant by MST analysis
MCF7 [19] = experiment: Induction of autophagy in human MCF7 cells assessed as increase in AMPK phosphorylation level at 0.5 to 2 uM incubated for 48 hrs by Western blotting analysis; type: functional, cell-based; conditions: dose 0.5-2 µM
[20] = Toxicity in female BALB/c mouse assessed as effect on lung at 50 mg/kg, po qd measured after 18 days in presence of chloroquine by H and E staining based analysis; type: organism-based; conditions: in vivo, 432 h, time 18 day
MCF7 [21] = experiment: Antiproliferative activity against human MCF7 cells harbouring ERK1 knockout incubated for 48 hrs by CCK-8 method; type: functional, cell-based
[22] = molecular target: Vascular endothelial growth factor receptor 3 (Homo sapiens) (UniProt P35916); experiment: Inhibition of human FLT4 at 10000 nM by DiscoverX KINOMEscan assay relative to control
MCF7 [23] = experiment: Activation of ERK1/2 pathway in human MCF7 cells assessed as increase in EGF-induced ERK phosphorylation at 2 uM incubated for 30 mins by Western blot analysis; type: cell-based; conditions: filed as activator
[24] = Half life in Sprague-Dawley rat at 1 mg/kg, iv by LC-MS/MS analysis; type: ADME, organism-based; conditions: in vivo
[25] = Oral availability in Sprague-Dawley rat at 10 mg/kg by LC-MS/MS analysis; type: ADME, organism-based; conditions: in vivo
Mitochondrial membrane [26] = experiment: Induction of mitochondrial membrane potential loss in human MCF7 cells assessed as increase in JC-1 monomers by measuring increase in green fluorescence at 2 uM by flow cytometry analysis (reference value: 38.0%); type: cell membranes
MCF7 [27] = experiment: Induction of autophagy in human MCF7 cells assessed as increase in ATG5 level at 1 uM by Western blot analysis; type: functional, cell-based
MCF7 [28] = experiment: Downregulation of c-Myc phosphorylation expression in human MCF7 cells at 0.5 to 2 uM measured after 30 mins to 4 hrs by Western blot analysis; type: functional, cell-based; conditions: dose 0.5-2 µM, time 30-240 min
[29] = Apparent volume of distribution in Sprague-Dawley rat at 1 mg/kg, iv by LC-MS/MS analysis; type: ADME, organism-based; conditions: in vivo, read-out: Vz
MCF7 [30] = experiment: Induction of apoptosis in human MCF7 cells assessed as early apoptotic cells at 0.5 uM incubated for 48 hrs by Annexin V/FITC and PI staining based flow cytometry analysis (reference value: 1.1%); type: functional
[31] = molecular target: Non-receptor tyrosine-protein kinase TYK2 (Homo sapiens) (UniProt P29597); experiment: Inhibition of human TYK2 at 10000 nM by DiscoverX KINOMEscan assay relative to control
MCF7 [32] = experiment: Induction of autophagic flux in human MCF7 cells assessed as colocalization of LAMP1 at 1 uM incubated for 48 hrs in presence of chloroquine by immunofluorescence analysis; type: functional, cell-based
MCF7 [33] = experiment: Induction of autophagy in human MCF7 cells assessed as increase in LC3B expression at 0.5 to 2 uM by immunofluorescence analysis; type: functional, cell-based; conditions: dose 0.5-2 µM
MCF7 [34] = experiment: Induction of apoptosis in human MCF7 cells assessed as late apoptotic cells at 1 uM incubated for 48 hrs by Annexin V/FITC and PI staining based flow cytometry analysis (reference value: 3.65%); type: functional
MCF7 [35] = experiment: Inhibition of cell invasion in human MCF7 cells at incubated for 48 hrs by crystal violet staining based assay; type: functional; conditions: dose 0.5-2 µM

Vascular endothelial growth factor receptor 3 (Homo sapiens), sequence (P35916 whole entry): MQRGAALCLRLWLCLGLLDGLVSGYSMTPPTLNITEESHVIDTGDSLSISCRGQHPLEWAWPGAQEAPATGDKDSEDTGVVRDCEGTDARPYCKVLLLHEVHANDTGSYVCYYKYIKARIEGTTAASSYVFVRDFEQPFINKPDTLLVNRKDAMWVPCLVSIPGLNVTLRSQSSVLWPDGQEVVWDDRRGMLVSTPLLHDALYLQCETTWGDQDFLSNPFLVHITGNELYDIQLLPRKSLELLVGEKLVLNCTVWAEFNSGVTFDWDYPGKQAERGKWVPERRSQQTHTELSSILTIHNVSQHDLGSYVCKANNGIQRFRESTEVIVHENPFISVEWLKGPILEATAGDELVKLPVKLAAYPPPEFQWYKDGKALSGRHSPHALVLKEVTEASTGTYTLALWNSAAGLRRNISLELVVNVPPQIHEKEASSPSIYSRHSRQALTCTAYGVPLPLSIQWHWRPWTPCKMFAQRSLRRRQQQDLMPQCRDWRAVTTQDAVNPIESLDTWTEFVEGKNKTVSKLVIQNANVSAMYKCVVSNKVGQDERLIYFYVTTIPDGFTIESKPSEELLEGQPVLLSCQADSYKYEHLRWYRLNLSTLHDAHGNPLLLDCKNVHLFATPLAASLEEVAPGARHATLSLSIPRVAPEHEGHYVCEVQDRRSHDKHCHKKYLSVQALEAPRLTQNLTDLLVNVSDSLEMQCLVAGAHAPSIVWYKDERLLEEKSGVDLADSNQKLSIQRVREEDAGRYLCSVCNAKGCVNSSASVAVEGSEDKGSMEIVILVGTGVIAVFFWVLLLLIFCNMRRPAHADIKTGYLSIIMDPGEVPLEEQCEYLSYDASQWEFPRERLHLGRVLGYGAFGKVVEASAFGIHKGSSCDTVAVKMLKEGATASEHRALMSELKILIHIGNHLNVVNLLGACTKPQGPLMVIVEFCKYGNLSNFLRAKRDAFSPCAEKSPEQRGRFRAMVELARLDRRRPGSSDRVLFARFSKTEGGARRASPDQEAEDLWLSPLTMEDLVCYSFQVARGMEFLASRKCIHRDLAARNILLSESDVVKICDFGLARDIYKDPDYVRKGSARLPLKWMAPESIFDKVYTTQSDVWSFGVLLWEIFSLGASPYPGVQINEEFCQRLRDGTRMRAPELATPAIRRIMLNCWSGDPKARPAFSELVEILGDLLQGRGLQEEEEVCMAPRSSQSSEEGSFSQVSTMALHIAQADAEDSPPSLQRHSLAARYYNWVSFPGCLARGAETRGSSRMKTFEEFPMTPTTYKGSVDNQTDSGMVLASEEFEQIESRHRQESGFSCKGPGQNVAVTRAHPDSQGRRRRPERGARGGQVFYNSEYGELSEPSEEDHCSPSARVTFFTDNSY
Vascular endothelial growth factor receptor 1 (Homo sapiens), sequence (P17948 whole entry): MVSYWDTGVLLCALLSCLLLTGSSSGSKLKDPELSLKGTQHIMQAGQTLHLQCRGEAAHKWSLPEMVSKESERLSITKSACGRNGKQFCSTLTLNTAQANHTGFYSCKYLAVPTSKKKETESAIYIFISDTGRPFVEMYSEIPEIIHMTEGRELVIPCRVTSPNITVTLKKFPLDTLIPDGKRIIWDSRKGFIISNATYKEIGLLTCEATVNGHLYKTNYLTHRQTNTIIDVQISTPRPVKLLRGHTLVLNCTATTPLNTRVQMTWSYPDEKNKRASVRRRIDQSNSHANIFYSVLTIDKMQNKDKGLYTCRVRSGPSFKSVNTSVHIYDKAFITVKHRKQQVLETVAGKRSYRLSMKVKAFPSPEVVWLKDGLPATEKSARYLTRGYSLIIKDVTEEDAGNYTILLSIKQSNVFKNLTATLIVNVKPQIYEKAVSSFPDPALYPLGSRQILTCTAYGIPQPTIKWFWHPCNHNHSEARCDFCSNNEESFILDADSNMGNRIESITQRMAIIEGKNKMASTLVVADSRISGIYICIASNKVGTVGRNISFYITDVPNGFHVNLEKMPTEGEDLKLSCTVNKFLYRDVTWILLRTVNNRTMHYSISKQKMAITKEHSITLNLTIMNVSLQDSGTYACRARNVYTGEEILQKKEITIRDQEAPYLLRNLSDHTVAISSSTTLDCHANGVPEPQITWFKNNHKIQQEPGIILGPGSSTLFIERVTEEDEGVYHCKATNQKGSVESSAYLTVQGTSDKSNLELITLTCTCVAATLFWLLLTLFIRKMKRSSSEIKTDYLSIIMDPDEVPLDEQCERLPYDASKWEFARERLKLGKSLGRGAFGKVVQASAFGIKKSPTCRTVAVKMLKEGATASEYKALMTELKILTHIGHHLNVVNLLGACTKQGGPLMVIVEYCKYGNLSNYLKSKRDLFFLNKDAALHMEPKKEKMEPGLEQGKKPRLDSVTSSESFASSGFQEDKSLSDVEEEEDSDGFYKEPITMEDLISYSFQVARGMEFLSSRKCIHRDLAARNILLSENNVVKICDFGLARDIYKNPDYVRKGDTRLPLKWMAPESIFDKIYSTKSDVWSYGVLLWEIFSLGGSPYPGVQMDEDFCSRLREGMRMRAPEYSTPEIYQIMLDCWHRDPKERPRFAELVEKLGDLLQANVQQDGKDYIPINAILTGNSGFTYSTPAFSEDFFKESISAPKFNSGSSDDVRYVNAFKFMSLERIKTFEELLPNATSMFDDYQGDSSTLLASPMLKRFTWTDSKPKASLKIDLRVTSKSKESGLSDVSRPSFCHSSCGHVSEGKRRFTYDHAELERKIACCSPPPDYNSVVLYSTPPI
Serine/threonine-protein kinase TAO2 (Homo sapiens), sequence (Q9UL54 whole entry): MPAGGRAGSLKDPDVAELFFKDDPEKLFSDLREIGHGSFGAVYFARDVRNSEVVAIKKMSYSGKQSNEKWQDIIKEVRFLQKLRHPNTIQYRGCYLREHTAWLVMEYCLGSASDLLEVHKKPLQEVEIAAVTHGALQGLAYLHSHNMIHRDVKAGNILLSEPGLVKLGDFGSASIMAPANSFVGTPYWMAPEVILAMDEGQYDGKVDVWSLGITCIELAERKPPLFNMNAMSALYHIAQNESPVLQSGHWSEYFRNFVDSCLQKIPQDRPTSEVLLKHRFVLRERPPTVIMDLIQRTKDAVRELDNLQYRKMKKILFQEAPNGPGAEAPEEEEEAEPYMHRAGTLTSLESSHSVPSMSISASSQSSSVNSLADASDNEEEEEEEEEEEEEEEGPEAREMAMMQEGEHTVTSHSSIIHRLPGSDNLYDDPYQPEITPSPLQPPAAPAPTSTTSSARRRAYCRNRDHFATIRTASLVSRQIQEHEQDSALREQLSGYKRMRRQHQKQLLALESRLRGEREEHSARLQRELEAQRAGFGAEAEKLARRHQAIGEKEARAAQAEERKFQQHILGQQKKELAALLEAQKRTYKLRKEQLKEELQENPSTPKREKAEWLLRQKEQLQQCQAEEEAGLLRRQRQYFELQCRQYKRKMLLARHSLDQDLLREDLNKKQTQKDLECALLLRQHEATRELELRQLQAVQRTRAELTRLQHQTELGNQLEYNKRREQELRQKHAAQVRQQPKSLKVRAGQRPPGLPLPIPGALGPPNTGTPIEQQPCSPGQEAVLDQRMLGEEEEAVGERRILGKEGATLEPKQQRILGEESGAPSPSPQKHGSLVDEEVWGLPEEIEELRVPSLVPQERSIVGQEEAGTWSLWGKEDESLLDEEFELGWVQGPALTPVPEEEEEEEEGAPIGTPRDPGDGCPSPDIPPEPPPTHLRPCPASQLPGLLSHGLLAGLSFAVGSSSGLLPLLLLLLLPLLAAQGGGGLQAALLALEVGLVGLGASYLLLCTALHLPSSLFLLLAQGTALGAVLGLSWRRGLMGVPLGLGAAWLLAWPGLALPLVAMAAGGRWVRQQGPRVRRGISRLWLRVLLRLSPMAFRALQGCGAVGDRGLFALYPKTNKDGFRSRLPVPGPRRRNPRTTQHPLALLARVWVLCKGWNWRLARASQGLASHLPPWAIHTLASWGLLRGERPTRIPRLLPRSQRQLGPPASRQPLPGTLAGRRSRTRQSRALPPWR
Mitogen-activated protein kinase 3, sequence (P27361 whole entry): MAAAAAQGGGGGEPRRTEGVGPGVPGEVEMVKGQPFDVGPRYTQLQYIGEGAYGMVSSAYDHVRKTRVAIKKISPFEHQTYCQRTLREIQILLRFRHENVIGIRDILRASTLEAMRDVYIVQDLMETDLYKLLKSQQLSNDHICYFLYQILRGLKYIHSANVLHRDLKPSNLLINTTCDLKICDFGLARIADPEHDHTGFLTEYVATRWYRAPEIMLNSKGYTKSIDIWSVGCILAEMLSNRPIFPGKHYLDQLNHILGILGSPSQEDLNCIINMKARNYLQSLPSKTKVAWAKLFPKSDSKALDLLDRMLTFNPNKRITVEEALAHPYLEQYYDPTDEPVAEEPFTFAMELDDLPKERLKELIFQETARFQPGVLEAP
Mitogen-activated protein kinase 1, sequence (P28482 whole entry): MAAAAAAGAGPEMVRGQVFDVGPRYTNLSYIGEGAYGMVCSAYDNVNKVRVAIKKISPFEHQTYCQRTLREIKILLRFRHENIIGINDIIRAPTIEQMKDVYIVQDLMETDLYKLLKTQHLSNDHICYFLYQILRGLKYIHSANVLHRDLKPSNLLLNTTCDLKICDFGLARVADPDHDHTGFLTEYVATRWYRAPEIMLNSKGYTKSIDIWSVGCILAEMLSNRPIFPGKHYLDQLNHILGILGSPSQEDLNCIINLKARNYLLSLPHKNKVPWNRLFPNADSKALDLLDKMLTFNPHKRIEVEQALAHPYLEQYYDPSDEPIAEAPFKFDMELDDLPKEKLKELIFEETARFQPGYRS

O=C(Nc1cc(C(F)(F)F)cc(C(F)(F)F)c1)N[C@@H](Cc1ccccc1)Cn1c[n+](Cc2ccc3ccccc3c2)c2ccccc21.[Br-]
inhibition (MCF7 [1]): Active | Activity [2]: Non-toxic | Cmax [3]: 770 ng/mL | Activity (MCF7 [4]): Active | Activity (4T1 [5]): Active | Activity (MCF7 [6]): Not active; Compound Showed Less Sensitivity Response | inhibition [7]: 14% | Activity (Mitochondrial membrane [8]): 9.86% | Activity (MCF7 [9]): inactive | pIC50 (A-375): 6.12 | Activity (MCF7 [10]): Active | Activity (4T1 [11]): Active | Activity (4T1-Luc): Active | pKd [12]: 6.94 | Activity (4T1 [13]): Active | Activity (4T1 [14]): Active | Activity (4T1 [15]): Active | inhibition [16]: 19% | Activity (MCF7 [17]): 4.92% | pKd [18]: 6.80 | Activity (MCF7 [19]): Active | Activity [20]: Non-toxic | Activity (MCF7 [21]): Not active; Compound Showed Less Sensitivity Response | inhibition [22]: 18% | Activity (MCF7 [23]): Active | half-life [24]: 3.15 h | bioavailability [25]: 37.1% | Activity (Mitochondrial membrane [26]): 52.4% | Activity (MCF7 [27]): Active | Activity (MCF7 [28]): Active | Vd [29]: 4.41 L/kg | Activity (MCF7 [30]): 9.9% | inhibition [31]: 14% | Activity (MCF7 [32]): Active | Activity (MCF7 [33]): Dose-dependent-effect | Activity (MCF7 [34]): 13.7% | inhibition (MCF7 [35]): Dose-dependent-effect
